Reference: PMC7385619, “A triple action CDK4/6-PI3K-BET inhibitor with augmented cancer cell cytotoxicity” (Cell Discovery, 2020)

What was measured:
Test in all cases: KINOMEscan assay (Eurofins DiscoverX)
Assay type in all cases: binding
kinome (kinase panel) [1] = target: T1, kinome (kinase panel) (Homo sapiens, UniProt P42336); settings: PIK3CA; 1000 nM; read-out: Percent Control
T1 construct: purchased Eurofins DiscoverX

kinome (kinase panel) [2] = target: T2, kinome (kinase panel) (Homo sapiens, UniProt Q14004); settings: CDC2L5 (Entrez CDK13); 1000 nM; read-out: Percent Control
T2 construct: purchased Eurofins DiscoverX

kinome (kinase panel) [3] = target: T3, kinome (kinase panel) (Homo sapiens, UniProt Q52WX2); settings: SBK1; 1000 nM; read-out: Percent Control
T3 construct: purchased Eurofins DiscoverX
T3 sequence (Q52WX2 whole entry): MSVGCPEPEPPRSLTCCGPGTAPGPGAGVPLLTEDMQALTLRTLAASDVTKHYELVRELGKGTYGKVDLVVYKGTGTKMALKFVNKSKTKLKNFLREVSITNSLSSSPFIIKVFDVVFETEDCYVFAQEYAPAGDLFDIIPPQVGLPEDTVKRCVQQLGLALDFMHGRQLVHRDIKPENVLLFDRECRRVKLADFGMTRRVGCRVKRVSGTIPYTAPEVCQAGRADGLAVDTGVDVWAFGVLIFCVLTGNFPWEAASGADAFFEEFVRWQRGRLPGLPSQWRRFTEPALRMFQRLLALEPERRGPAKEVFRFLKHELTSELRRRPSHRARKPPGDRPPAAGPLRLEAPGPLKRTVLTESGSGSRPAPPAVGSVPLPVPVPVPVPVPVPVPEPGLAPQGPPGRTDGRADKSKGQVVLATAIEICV

kinome (kinase panel) [4] = target: T4, kinome (kinase panel) (Homo sapiens, UniProt Q00537); settings: PCTK2 (Entrez CDK17); 1000 nM; read-out: Percent Control
T4 construct: purchased Eurofins DiscoverX
T4 sequence (Q00537 whole entry): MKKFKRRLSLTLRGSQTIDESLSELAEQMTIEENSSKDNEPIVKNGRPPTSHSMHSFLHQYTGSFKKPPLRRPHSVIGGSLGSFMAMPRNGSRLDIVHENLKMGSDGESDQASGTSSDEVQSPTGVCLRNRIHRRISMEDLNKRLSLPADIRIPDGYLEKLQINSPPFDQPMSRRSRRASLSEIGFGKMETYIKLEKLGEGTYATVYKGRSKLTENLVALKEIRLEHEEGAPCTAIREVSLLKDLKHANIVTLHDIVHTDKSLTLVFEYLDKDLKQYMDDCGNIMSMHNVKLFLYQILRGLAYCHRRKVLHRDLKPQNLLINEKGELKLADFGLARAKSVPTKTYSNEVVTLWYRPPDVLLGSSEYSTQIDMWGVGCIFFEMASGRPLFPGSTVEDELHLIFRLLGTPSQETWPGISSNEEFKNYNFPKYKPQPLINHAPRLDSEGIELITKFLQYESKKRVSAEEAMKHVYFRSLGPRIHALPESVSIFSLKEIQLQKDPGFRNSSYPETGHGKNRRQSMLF

kinome (kinase panel) [5] = target: T5, kinome (kinase panel) (Homo sapiens, UniProt Q16566); settings: CAMK4; 1000 nM; read-out: Percent Control
T5 construct: purchased Eurofins DiscoverX

kinome (kinase panel) [6] = target: T6, kinome (kinase panel) (Homo sapiens, UniProt Q9HC98); settings: NEK6; 1000 nM; read-out: Percent Control
T6 construct: purchased Eurofins DiscoverX

kinome (kinase panel) [7] = target: T7, kinome (kinase panel) (Homo sapiens, UniProt Q9H4A3); settings: WNK1; 1000 nM; read-out: Percent Control
T7 construct: purchased Eurofins DiscoverX

kinome (kinase panel) [8] = target: T8, kinome (kinase panel) (Homo sapiens, UniProt P08581); settings: MET; 1000 nM; read-out: Percent Control
T8 construct: purchased Eurofins DiscoverX

kinome (kinase panel) [9] = target: T9, kinome (kinase panel) (Homo sapiens, UniProt P36507); settings: MEK2 (Entrez MAP2K2); 1000 nM; read-out: Percent Control
T9 construct: purchased Eurofins DiscoverX

kinome (kinase panel) [10] = target: T10, kinome (kinase panel) (Homo sapiens, UniProt Q9BUB5); settings: MKNK1; 1000 nM; read-out: Percent Control
T10 construct: purchased Eurofins DiscoverX
T10 sequence (Q9BUB5 whole entry): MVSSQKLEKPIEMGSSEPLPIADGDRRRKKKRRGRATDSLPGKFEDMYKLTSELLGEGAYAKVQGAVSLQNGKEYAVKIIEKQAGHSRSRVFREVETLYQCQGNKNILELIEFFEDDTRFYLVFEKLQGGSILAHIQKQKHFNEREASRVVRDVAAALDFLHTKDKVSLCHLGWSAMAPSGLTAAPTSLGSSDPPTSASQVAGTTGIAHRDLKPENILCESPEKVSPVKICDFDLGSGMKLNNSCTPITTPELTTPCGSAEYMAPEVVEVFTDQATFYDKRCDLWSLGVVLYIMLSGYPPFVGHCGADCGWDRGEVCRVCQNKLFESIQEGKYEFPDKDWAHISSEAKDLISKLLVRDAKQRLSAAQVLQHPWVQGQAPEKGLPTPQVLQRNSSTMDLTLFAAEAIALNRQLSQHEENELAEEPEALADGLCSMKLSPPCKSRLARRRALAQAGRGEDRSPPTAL

kinome (kinase panel) [11] = target: T11, kinome (kinase panel) (Homo sapiens, UniProt Q13705); settings: ACVR2B; 1000 nM; read-out: Percent Control
T11 construct: purchased Eurofins DiscoverX

kinome (kinase panel) [12] = target: T12, kinome (kinase panel) (Homo sapiens, UniProt Q8TDX7); settings: NEK7; 1000 nM; read-out: Percent Control
T12 construct: purchased Eurofins DiscoverX

kinome (kinase panel) [13] = target: T13, kinome (kinase panel) (Homo sapiens, UniProt P49760); settings: CLK2; 1000 nM; read-out: Percent Control
T13 construct: purchased Eurofins DiscoverX
T13 sequence (P49760 whole entry): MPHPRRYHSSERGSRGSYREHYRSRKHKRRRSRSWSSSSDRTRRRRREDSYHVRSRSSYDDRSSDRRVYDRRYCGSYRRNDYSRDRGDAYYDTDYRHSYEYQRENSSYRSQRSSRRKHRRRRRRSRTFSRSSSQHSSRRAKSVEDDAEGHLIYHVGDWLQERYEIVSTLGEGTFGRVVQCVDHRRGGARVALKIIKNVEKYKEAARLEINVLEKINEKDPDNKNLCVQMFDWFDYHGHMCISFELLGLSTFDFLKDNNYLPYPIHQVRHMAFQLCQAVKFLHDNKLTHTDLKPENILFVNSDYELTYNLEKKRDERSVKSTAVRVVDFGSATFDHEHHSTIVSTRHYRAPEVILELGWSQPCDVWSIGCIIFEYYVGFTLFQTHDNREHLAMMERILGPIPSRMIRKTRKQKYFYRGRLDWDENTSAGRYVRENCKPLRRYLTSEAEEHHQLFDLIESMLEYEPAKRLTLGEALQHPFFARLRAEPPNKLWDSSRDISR

kinome (kinase panel) [14] = target: T14, kinome (kinase panel) (Homo sapiens, UniProt Q9UM73, C1156Y); settings: […]; 1000 nM; read-out: Percent Control
T14 construct: purchased Eurofins DiscoverX

kinome (kinase panel) [15] = target: T15, kinome (kinase panel) (Homo sapiens, UniProt P43403); settings: ZAP70; 1000 nM; read-out: Percent Control
T15 construct: purchased Eurofins DiscoverX
T15 sequence (P43403 whole entry): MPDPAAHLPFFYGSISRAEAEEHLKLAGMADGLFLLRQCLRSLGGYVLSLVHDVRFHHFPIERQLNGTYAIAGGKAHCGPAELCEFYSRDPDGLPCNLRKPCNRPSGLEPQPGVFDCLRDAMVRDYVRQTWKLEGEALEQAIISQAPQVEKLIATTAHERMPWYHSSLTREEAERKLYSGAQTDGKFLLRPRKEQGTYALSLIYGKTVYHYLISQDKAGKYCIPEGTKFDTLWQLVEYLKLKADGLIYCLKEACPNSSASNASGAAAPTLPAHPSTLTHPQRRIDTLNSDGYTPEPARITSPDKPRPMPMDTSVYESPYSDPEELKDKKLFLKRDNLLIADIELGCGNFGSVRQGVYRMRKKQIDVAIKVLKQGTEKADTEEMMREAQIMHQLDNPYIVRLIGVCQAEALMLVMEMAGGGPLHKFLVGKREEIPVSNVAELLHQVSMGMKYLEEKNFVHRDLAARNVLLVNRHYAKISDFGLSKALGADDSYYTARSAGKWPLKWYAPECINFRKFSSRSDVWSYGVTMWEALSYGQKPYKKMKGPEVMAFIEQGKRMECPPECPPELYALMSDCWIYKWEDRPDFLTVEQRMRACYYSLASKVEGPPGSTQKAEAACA

kinome (kinase panel) [16] = target: T16, kinome (kinase panel) (Homo sapiens, UniProt Q9NRP7); settings: STK36; 1000 nM; read-out: Percent Control
T16 construct: purchased Eurofins DiscoverX

kinome (kinase panel) [17] = target: T17, kinome (kinase panel) (Homo sapiens, UniProt Q9P1W9); settings: PIM2; 1000 nM; read-out: Percent Control
T17 construct: purchased Eurofins DiscoverX

kinome (kinase panel) [18] = target: T18, kinome (kinase panel) (Homo sapiens, UniProt Q02156); settings: PRKCE; 1000 nM; read-out: Percent Control
T18 construct: purchased Eurofins DiscoverX

kinome (kinase panel) [19] = target: T19, kinome (kinase panel) (Homo sapiens, UniProt P42336, E545K); settings: read-out: Percent Control
T19 construct: purchased Eurofins DiscoverX
T19 sequence (P42336 whole entry E545K): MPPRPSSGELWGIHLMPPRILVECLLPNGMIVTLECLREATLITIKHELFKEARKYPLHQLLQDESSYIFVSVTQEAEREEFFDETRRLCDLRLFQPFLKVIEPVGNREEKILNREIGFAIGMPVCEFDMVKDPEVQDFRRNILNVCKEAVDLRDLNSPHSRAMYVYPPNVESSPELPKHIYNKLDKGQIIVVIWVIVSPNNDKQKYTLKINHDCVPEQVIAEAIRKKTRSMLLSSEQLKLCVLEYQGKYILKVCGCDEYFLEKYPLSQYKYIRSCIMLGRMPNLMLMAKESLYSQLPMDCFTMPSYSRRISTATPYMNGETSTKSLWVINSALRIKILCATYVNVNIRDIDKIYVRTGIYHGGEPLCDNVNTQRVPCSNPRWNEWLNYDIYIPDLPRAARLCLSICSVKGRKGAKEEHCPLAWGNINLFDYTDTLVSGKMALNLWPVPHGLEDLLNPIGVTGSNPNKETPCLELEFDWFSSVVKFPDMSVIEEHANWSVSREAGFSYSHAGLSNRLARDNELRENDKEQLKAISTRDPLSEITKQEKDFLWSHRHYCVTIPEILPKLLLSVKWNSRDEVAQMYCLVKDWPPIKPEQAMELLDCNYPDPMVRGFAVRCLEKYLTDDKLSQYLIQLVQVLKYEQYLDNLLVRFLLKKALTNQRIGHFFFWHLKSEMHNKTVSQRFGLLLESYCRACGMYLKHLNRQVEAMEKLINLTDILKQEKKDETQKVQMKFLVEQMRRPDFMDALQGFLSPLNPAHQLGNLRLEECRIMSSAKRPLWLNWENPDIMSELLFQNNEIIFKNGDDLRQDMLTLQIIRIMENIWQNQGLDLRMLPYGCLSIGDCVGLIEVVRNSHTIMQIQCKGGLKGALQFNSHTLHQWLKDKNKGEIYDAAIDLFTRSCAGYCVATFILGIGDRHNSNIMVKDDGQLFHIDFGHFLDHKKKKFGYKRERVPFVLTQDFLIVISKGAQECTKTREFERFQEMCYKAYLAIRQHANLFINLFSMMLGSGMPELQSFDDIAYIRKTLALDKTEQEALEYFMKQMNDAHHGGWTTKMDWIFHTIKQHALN

kinome (kinase panel) [20] = target: T20, kinome (kinase panel) (Homo sapiens, UniProt Q9HAZ1); settings: CLK4; 1000 nM; read-out: Percent Control
T20 construct: purchased Eurofins DiscoverX
T20 sequence (Q9HAZ1 whole entry): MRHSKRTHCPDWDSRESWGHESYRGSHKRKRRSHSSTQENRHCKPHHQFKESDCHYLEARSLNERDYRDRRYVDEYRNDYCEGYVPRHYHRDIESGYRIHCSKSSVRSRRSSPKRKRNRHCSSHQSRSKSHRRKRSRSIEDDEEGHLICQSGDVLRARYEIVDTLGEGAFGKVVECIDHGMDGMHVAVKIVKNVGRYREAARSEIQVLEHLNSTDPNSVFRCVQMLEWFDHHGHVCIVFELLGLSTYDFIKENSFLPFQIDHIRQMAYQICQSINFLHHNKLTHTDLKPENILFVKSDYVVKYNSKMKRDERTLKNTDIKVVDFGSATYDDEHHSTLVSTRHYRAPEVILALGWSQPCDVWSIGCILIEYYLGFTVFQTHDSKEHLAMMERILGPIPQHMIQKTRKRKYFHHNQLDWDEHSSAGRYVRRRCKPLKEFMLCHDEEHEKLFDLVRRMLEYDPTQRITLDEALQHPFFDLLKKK

kinome (kinase panel) [21] = target: T21, kinome (kinase panel) (Homo sapiens, UniProt P49336); settings: CDK8; 1000 nM; read-out: Percent Control
T21 construct: purchased Eurofins DiscoverX

kinome (kinase panel) [22] = target: T22, kinome (kinase panel) (Homo sapiens, UniProt Q9UBF8); settings: PIK4CB (Entrez PI4KB); 1000 nM; read-out: Percent Control
T22 construct: purchased Eurofins DiscoverX

kinome (kinase panel) [23] = target: T23, kinome (kinase panel) (Homo sapiens, UniProt Q9BWU1); settings: CDK11 (Entrez CDK19); 1000 nM; read-out: Percent Control
T23 construct: purchased Eurofins DiscoverX

kinome (kinase panel) [24] = target: T24, kinome (kinase panel) (Homo sapiens, UniProt P07948); settings: LYN; 1000 nM; read-out: Percent Control
T24 construct: purchased Eurofins DiscoverX

kinome (kinase panel) [25] = target: T25, kinome (kinase panel) (Homo sapiens, UniProt Q96BR1); settings: SGK3; 1000 nM; read-out: Percent Control
T25 construct: purchased Eurofins DiscoverX

kinome (kinase panel) [26] = target: T26, kinome (kinase panel) (Homo sapiens, UniProt Q8NFD2); settings: ANKK1; 1000 nM; read-out: Percent Control
T26 construct: purchased Eurofins DiscoverX

kinome (kinase panel) [27] = target: T27, kinome (kinase panel) (Homo sapiens, UniProt P42336, C420R); settings: read-out: Percent Control
T27 construct: purchased Eurofins DiscoverX
T27 sequence (P42336 whole entry C420R): as the sequence (P42336 whole entry E545K) above, with C420R, K545E counted along it

kinome (kinase panel) [28] = target: T28, kinome (kinase panel) (Homo sapiens, UniProt P53779); settings: JNK3 (Entrez MAPK10); 1000 nM; read-out: Percent Control
T28 construct: purchased Eurofins DiscoverX

kinome (kinase panel) [29] = target: T29, kinome (kinase panel) (Homo sapiens, UniProt P27448); settings: MARK3; 1000 nM; read-out: Percent Control
T29 construct: purchased Eurofins DiscoverX

kinome (kinase panel) [30] = target: T30, kinome (kinase panel) (Homo sapiens, UniProt Q16659); settings: ERK3 (Entrez MAPK6); 1000 nM; read-out: Percent Control
T30 construct: purchased Eurofins DiscoverX

kinome (kinase panel) [31] = target: T31, kinome (kinase panel) (Homo sapiens, UniProt Q9UEE5); settings: DRAK1 (Entrez STK17A); 1000 nM; read-out: Percent Control
T31 construct: purchased Eurofins DiscoverX
T31 sequence (Q9UEE5 whole entry): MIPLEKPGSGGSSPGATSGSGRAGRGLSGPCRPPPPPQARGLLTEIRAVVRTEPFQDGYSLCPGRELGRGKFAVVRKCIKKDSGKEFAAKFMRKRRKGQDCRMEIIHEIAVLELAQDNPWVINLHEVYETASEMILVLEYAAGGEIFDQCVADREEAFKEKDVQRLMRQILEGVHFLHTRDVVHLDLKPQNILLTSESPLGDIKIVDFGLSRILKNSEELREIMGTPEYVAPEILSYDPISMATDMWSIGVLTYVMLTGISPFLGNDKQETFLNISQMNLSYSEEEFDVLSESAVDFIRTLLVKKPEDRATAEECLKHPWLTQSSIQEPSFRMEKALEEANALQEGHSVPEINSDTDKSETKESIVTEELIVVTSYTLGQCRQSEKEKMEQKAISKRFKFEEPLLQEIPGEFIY

kinome (kinase panel) [32] = target: T32, kinome (kinase panel) (Homo sapiens, UniProt Q9HBY8); settings: SGK2; 1000 nM; read-out: Percent Control
T32 construct: purchased Eurofins DiscoverX
T32 sequence (Q9HBY8 whole entry): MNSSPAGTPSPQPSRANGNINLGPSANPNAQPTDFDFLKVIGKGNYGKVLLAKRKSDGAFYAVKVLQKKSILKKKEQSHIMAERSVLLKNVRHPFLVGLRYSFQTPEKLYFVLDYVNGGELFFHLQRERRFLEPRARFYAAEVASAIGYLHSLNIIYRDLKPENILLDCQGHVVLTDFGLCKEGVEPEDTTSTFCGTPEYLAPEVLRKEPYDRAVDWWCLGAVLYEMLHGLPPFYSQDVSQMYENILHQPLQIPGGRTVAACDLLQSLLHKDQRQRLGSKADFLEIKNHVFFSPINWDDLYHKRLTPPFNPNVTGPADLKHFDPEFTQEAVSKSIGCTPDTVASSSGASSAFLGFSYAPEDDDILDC

kinome (kinase panel) [33] = target: T33, kinome (kinase panel) (Homo sapiens, UniProt Q6PHR2); settings: ULK3; 1000 nM; read-out: Percent Control
T33 construct: purchased Eurofins DiscoverX

T1 sequence (P42336 whole entry): as the sequence (P42336 whole entry E545K) above, with K545E counted along it

CN(C)C(=O)c1cc2cnc(Nc3ccc(-c4csc5c(=O)cc(N6CCOCC6)oc45)cc3)nc2n1C1CCCC1 [SRX3177]
remaining binding at 1 µM (kinome (kinase panel) [1]): 72% | remaining binding at 1 µM (kinome (kinase panel) [2]): 4.1% | remaining binding at 1 µM (kinome (kinase panel) [3]): 67% | remaining binding at 1 µM (kinome (kinase panel) [4]): 55% | remaining binding at 1 µM (kinome (kinase panel) [5]): 100% | remaining binding at 1 µM (kinome (kinase panel) [6]): 100% | remaining binding at 1 µM (kinome (kinase panel) [7]): 93% | remaining binding at 1 µM (kinome (kinase panel) [8]): 80% | remaining binding at 1 µM (kinome (kinase panel) [9]): 50% | remaining binding at 1 µM (kinome (kinase panel) [10]): 42% | remaining binding at 1 µM (kinome (kinase panel) [11]): 87% | remaining binding at 1 µM (kinome (kinase panel) [12]): 100% | remaining binding at 1 µM (kinome (kinase panel) [13]): 92% | remaining binding at 1 µM (kinome (kinase panel) [14]): 77% | remaining binding at 1 µM (kinome (kinase panel) [15]): 100% | remaining binding at 1 µM (kinome (kinase panel) [16]): 92% | remaining binding at 1 µM (kinome (kinase panel) [17]): 100% | remaining binding at 1 µM (kinome (kinase panel) [18]): 93% | remaining binding at 1 µM (kinome (kinase panel) [19]): 45% | remaining binding at 1 µM (kinome (kinase panel) [20]): 100% | remaining binding at 1 µM (kinome (kinase panel) [21]): 90% | remaining binding at 1 µM (kinome (kinase panel) [22]): 19% | remaining binding at 1 µM (kinome (kinase panel) [23]): 80% | remaining binding at 1 µM (kinome (kinase panel) [24]): 94% | remaining binding at 1 µM (kinome (kinase panel) [25]): 100% | remaining binding at 1 µM (kinome (kinase panel) [26]): 50% | remaining binding at 1 µM (kinome (kinase panel) [27]): 81% | remaining binding at 1 µM (kinome (kinase panel) [28]): 55% | remaining binding at 1 µM (kinome (kinase panel) [29]): 85% | remaining binding at 1 µM (kinome (kinase panel) [30]): 100% | remaining binding at 1 µM (kinome (kinase panel) [31]): 100% | remaining binding at 1 µM (kinome (kinase panel) [32]): 65% | remaining binding at 1 µM (kinome (kinase panel) [33]): 51%
